In test [1] the target is T1, human PrRP receptor, GPR10 (Homo sapiens, UniProt P49683).
T1 construct: host or cells: CHO cells
T1 sequence (P49683 1-370): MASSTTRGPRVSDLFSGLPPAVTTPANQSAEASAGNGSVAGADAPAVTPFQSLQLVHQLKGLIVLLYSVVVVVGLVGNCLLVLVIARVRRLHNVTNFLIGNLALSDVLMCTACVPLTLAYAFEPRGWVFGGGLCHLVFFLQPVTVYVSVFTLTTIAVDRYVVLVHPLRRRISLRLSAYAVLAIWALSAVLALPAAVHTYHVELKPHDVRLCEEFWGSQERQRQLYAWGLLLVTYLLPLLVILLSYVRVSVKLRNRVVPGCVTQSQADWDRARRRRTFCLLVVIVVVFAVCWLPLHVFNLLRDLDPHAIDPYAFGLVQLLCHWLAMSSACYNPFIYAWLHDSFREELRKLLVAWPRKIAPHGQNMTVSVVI
Kind of test: Competitive binding to CHO cells with transfected human GPR10. As to conditions: CHO cells with transfected human GPR10, human ^125I—PrRP31. The protocol:
Competitive binding experiments were performed according to Motulsky and Neubig (Motulsky, A., et al., “Analyzing radioligand binding data,” Curr Protoc Neurosci, Chapter 7, Unit 7.5, 2002).
CHO cells with transfected human PrRP receptor, GPR10 (Perkin Elmer, USA) were grown on 24-well plates coated with polyethyleneimine. The cells were grown to the optimal density of 40-80 thousand cells per well. The following agents were used for the experiment: binding buffer (25 mmol·l^−1 Tris, pH 7.4; 118 mmol·l^−1 NaCl, 10 mmol·l^−1 MgCl2, 1 mmol·l^−1 CaCl2, 5.5 mmol·l^−1 glucose, 0.5 mg/ml BSA), unlabelled analogs of PrRP of final concentration within 10^−11 to 10^−4 mol·l^−1, and human ^125I—PrRP31 of final concentration of 5×10^−11 mol·l^−1.
Plates were incubated for 60 minutes at room temperature. After incubation, the cells were solubilized in 0.1 mol/l solution of NaOH and the radioactivity bound to the cells was counted using a γ-counter. The experiments were performed in duplicate and repeated at least three times.
For evaluation of competitive binding experiments, the program Graph Pad Prism Software (San Diego, Calif., USA) was used. A method of nonlinear regression assuming one-site binding was used.

The test system of the next test is fasted C57BL/6 mice. The experiment in a line: Food intake in fasted mice after SC administration. In kind it is in vivo, mouse. The conditions noted are these: fasted C57BL/6 mice, 5 mg/kg SC, 45 min. In short, it runs like this: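 Male C57BL/6 mice, food-deprived 17 h, received saline, PrRP or lipidated analogs either SC at 1-10 mg/kg or ICV into the third ventricle at 4 nmol/mouse.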

Test [2] deals with T2, rat PrRP receptor (GPR10) in RC-4B/C cells (Rattus norvegicus, UniProt Q64121).
T2 construct: host or cells: RC-4B/C rat pituitary cell line
T2 sequence (Q64121 1-370): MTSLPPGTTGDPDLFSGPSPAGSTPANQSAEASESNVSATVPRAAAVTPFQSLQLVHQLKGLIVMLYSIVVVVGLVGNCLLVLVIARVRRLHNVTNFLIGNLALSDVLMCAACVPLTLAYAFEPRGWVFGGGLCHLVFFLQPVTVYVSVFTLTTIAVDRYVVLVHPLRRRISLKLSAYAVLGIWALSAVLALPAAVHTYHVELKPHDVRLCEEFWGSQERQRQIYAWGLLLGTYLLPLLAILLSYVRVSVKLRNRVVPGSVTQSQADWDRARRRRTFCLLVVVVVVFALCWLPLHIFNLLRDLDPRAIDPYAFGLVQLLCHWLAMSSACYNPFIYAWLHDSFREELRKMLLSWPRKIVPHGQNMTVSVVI
Kind of test: Competitive binding to rat pituitary RC-4B/C cells. As to conditions: rat RC-4B/C cells, Table 5; read-out: C-4B/C cells ^25I-rat PrRP31 Ki.

Where a SMILES comes first, the peptide text is derived from it. [ ]: non-standard residue; d: D form. The star is where a group is joined. Phe(F5) = N[C@@H](Cc1c(F)c(F)c(F)c(F)c1F)C(=O)O; Palmitoyl = CCCCCCCCCCCCCCCC(=O)*; Lauroyl = CCCCCCCCCCCC(=O)*; Nle = CCCC[C@H](N)C(=O)O

Turning to `CCCC[C@H](NC(=O)[C@H](CO)NC(=O)[C@H](Cc1c[nH]cn1)NC(=O)[C@H](CCC(N)=O)NC(=O)[C@H](Cc1c[nH]cn1)NC(=O)[C@H](C)NC(=O)[C@H](CCCNC(=N)N)NC(=O)[C@@H](N)CO)C(=O)N[C@@H](CCC(=O)O)C(=O)N[C@H](C(=O)N[C@@H](CCCNC(=N)N)C(=O)N[C@H](C(=O)N1CCC[C@H]1C(=O)N[C@@H](CC(=O)O)C(=O)N[C@H](C(=O)N[C@@H](CC(N)=O)C(=O)N1CCC[C@H]1C(=O)N[C@@H](C)C(=O)N[C@@H](Cc1c[nH]c2ccccc12)C(=O)N[C@@H](Cc1ccc(O)cc1)C(=O)N[C@H](C(=O)NCC(=O)N[C@@H](CCCNC(=N)N)C(=O)NCC(=O)N[C@H](C(=O)N[C@@H](CCCNC(=N)N)C(=O)N1CCC[C@H]1C(=O)N[C@H](C(=O)NCC(=O)N[C@@H](CCCNC(=N)N)C(=O)N[C@@H](Cc1ccccc1)C(N)=O)C(C)C)[C@@H](C)CC)[C@@H](C)O)[C@@H](C)CC)[C@@H](C)O)[C@@H](C)O` [Analog 14] (H-SRAHQHS[Nle]ETRTPDINPAWYTGRGIRPVGRF-NH2), in test [1], the Ki is 1.92 ± 0.43 nM. Also, in the test with fasted C57BL/6 mice, the “Food intake in mice (5 mg/kg SC) % saline-treated group (45 min)” value is recorded as 100%.

In the case of `CCCCCCCCCCCC(=O)N[C@H](C(=O)N1CCC[C@H]1C(=O)N[C@@H](CC(=O)O)C(=O)N[C@H](C(=O)N[C@@H](CC(N)=O)C(=O)N1CCC[C@H]1C(=O)N[C@@H](C)C(=O)N[C@@H](Cc1c[nH]c2ccccc12)C(=O)N[C@@H](Cc1ccc(O)cc1)C(=O)N[C@@H](C)C(=O)N[C@@H](CO)C(=O)N[C@@H](CCCNC(=N)N)C(=O)NCC(=O)N[C@H](C(=O)N[C@@H](CCCNC(=N)N)C(=O)N1CCC[C@H]1C(=O)N[C@H](C(=O)NCC(=O)N[C@@H](CCCNC(=N)N)C(=O)N[C@@H](Cc1ccccc1)C(N)=O)C(C)C)[C@@H](C)CC)[C@@H](C)CC)[C@@H](C)O` [Analog 54] (Lauroyl-TPDINPAWYASRGIRPVGRF-NH2), the Ki in test [1] was found to be 2.41 ± 0.26 nM. In addition, in the test with fasted C57BL/6 mice, the “Food intake in mice (5 mg/kg SC) % saline-treated group (45 min)” value was found to be 85%.

Regarding `CCCCCCCCCCCCCCCC(=O)N[C@@H](CO)C(=O)N[C@@H](CCCNC(=N)N)C(=O)N[C@@H](C)C(=O)N[C@@H](Cc1c[nH]cn1)C(=O)N[C@@H](CCC(N)=O)C(=O)N[C@@H](Cc1c[nH]cn1)C(=O)N[C@@H](CO)C(=O)N[C@@H](CCCC)C(=O)N[C@@H](CCC(=O)O)C(=O)N[C@H](C(=O)N[C@@H](CCCNC(=N)N)C(=O)N[C@H](C(=O)N1CCC[C@H]1C(=O)N[C@@H](CC(=O)O)C(=O)N[C@H](C(=O)N[C@@H](CC(N)=O)C(=O)N1CCC[C@H]1C(=O)N[C@@H](C)C(=O)N[C@@H](Cc1c[nH]c2ccccc12)C(=O)N[C@@H](Cc1ccc(O)cc1)C(=O)N[C@H](C(=O)NCC(=O)N[C@@H](CCCNC(=N)N)C(=O)NCC(=O)N[C@H](C(=O)N[C@@H](CCCNC(=N)N)C(=O)N1CCC[C@H]1C(=O)N[C@H](C(=O)NCC(=O)N[C@@H](CCCNC(=N)N)C(=O)N[C@@H](Cc1c(F)c(F)c(F)c(F)c1F)C(N)=O)C(C)C)[C@@H](C)CC)[C@@H](C)O)[C@@H](C)CC)[C@@H](C)O)[C@@H](C)O` [Analog 33] (Palmitoyl-SRAHQHS[Nle]ETRTPDINPAWYTGRGIRPVGR[Phe(F5)]-NH2), the Ki in test [1] came to 1.92 ± 0.53 nM; in test [2] it was 0.51 ± 0.08 nM. Besides, the “Food intake in mice (5 mg/kg SC) % saline-treated group (45 min)” value in the test with fasted C57BL/6 mice is listed as 41%.

The values are drawn from patent US9937235B2, “Lipidated peptides as anti-obesity agents” (USTAV ORGANICKE CHEMIE A BIOCHEMIE AKADEMIE VED CR, V.V.I, priority 2012, dated 2018).
